From patent US7179806B2, “Δ1-pyrrolines used as pesticides” (Bayer Cropscience AG, priority 2000, dated 2007) come the findings set out here.

This data set is described as follows: log P determination by HPLC (reversed-phase C18, EEC Directive 79/831 Annex V.A8). The following applies: reversed-phase C18 HPLC column, pH 2.3, pH 2.3, 0.1% aqueous phosphoric acid/acetonitrile gradient, 43° C. The format is physicochemical. An excerpt:
Mobile phases for determination in the acidic range: 0.1% aqueous phosphoric acid, acetonitrile; linear gradient from 10% acetonitrile to 90% acetonitrile.
`Fc1cccc(F)c1C1=NC(c2ccc(-c3cnc(N4CCN(c5cccc(Cl)c5)CC4)nc3)cc2)CC1` (stereo not drawn) [Example 136] showed a chromatographic logP of 4.83.
Compound `C[C@@H]1CN(c2ncc(-c3ccc(C4CCC(c5c(F)cccc5F)=N4)cc3)cn2)C[C@H](C)O1` (stereo partly drawn) [Example 137] yielded a chromatographic logP of 3.03.
Take `CCC(CC)N1CCN(c2ccc(-c3ccc(C4CCC(c5c(F)cccc5F)=N4)cc3)cn2)CC1` (stereo not drawn) [Example 138]: the chromatographic logP stood at 1.39.
`CC(C)(C)c1ccc(CN2CCN(c3ncc(-c4ccc(C5CCC(c6c(F)cccc6F)=N5)cc4)cn3)CC2)cc1` (stereo not drawn) [Example 139] returned a chromatographic logP of 3.3.
For the compound `Fc1cccc(F)c1C1=NC(c2ccc(-c3cnc(N4CCSCC4)nc3)cc2)CC1` (stereo not drawn) [Example 140], the chromatographic logP worked out at 3.13.
On to `Cc1ccc(CN2CCN(c3ncc(-c4ccc(C5CCC(c6c(F)cccc6F)=N5)cc4)cn3)CC2)cc1` (stereo not drawn) [Example 141], for which the chromatographic logP is 2.28.
Regarding `COc1ccc(CN2CCN(c3ncc(-c4ccc(C5CCC(c6c(F)cccc6F)=N5)cc4)cn3)CC2)cc1` (stereo not drawn) [Example 142], the chromatographic logP is 2.22.
Turning to `Fc1cccc(F)c1C1=NC(c2ccc(-c3cnc(N4CCN(Cc5ccc(Cl)cc5)CC4)nc3)cc2)CC1` (stereo not drawn) [Example 143], the chromatographic logP was determined as 2.25.
With `Fc1cccc(F)c1C1=NC(c2ccc(-c3cnc(N4CCN(Cc5ccc(C(F)(F)F)cc5)CC4)nc3)cc2)CC1` (stereo not drawn) [Example 144] the figure was 4.7.
Take `Fc1ccc(CN2CCN(c3ncc(-c4ccc(C5CCC(c6c(F)cccc6F)=N5)cc4)cn3)CC2)cc1` (stereo not drawn) [Example 145]: the chromatographic logP was 1.78.
As to `N#Cc1ccccc1N1CCN(c2ncc(-c3ccc(C4CCC(c5c(F)cccc5F)=N4)cc3)cn2)CC1` (stereo not drawn) [Example 146], the chromatographic logP worked out at 3.78.
As to `CN1CCN(c2ncc(-c3ccc(C4CCC(c5c(F)cccc5F)=N4)cc3)cn2)CC1` (stereo not drawn) [Example 147], the chromatographic logP is 1.48.
Compound `COCCN1CCN(c2ncc(-c3ccc(C4CCC(c5c(F)cccc5F)=N4)cc3)cn2)CC1` (stereo not drawn) [Example 148] registered a chromatographic logP of 1.49.
Compound `Fc1ccc(N2CCN(c3ncc(-c4ccc(C5CCC(c6c(F)cccc6F)=N5)cc4)cn3)CC2)cc1` (stereo not drawn) [Example 149] had a chromatographic logP of 3.95.
As to `N#Cc1cccnc1N1CCN(c2ncc(-c3ccc(C4CCC(c5c(F)cccc5F)=N4)cc3)cn2)CC1` (stereo not drawn) [Example 150], the chromatographic logP turned out to be 3.28.
`Fc1cccc(F)c1C1=NC(c2ccc(-c3cnc(N4CCN(Cc5ccccc5)CC4)nc3)cc2)CC1` (stereo not drawn) [Example 152] yielded a chromatographic logP of 1.92.
In the case of `CCCCCCNc1ncc(-c2ccc(C3CCC(c4c(F)cccc4F)=N3)cc2)cn1` (stereo not drawn) [Example 153], the chromatographic logP turned out to be 3.1.
Compound `CCCCCNc1ncc(-c2ccc(C3CCC(c4c(F)cccc4F)=N3)cc2)cn1` (stereo not drawn) [Example 154] registered a chromatographic logP of 2.9.
With `CCCCCN1CCN(c2ncc(-c3ccc(C4CCC(c5c(F)cccc5F)=N4)cc3)cn2)CC1` (stereo not drawn) [Example 155], the chromatographic logP is 2.02.
In turn, `Cc1cccc(N2CCN(c3ccc(-c4ccc(C5CCC(c6c(F)cccc6F)=N5)cc4)cn3)CC2)c1C` (stereo not drawn) [Example 157] returned a chromatographic logP of 3.63.
As to `CCC(C)N1CCN(c2ncc(-c3ccc(C4CCC(c5c(F)cccc5F)=N4)cc3)cn2)CC1` (stereo not drawn) [Example 158], the chromatographic logP worked out at 1.65.
In turn, `Fc1cccc(F)c1C1=NC(c2ccc(-c3cnc(N4CCN(c5ccccn5)CC4)nc3)cc2)CC1` (stereo not drawn) [Example 159] showed a chromatographic logP of 2.06.
In turn, `Fc1cccc(F)c1C1=NC(c2ccc(-c3cnc(NC4CC4)nc3)cc2)CC1` (stereo not drawn) [Example 160] came in with a chromatographic logP of 1.65.
As to `Fc1cccc(F)c1C1=NC(c2ccc(-c3cnc(NC4CCCC4)nc3)cc2)CC1` (stereo not drawn) [Example 161], the chromatographic logP amounted to 2.58.
`Fc1cccc(F)c1C1=NC(c2ccc(-c3cnc(NC4CCCCC4)nc3)cc2)CC1` (stereo not drawn) [Example 162] had a chromatographic logP of 3.
Compound `CCCN(CC)c1ncc(-c2ccc([C@H]3CCC(c4c(F)cccc4F)=N3)cc2)cn1` [Example 163] came in with a chromatographic logP of 3.58.
As to `Fc1cccc(F)c1C1=N[C@@H](c2ccc(-c3ccc(N4CCOCC4)nc3)cc2)CC1` [Example 164], the chromatographic logP is 1.27.
`Fc1cccc(F)c1C1=NC(c2ccc(-c3ccc(N4CCN(c5cccc(Cl)c5)CC4)nc3)cc2)CC1` (stereo not drawn) [Example 165] yielded a chromatographic logP of 3.17.
On to `Fc1cccc(F)c1C1=NC(c2ccc(-c3cnc(-n4cccc4)nc3)cc2)CC1` (stereo not drawn) [Example 166], for which the chromatographic logP turned out to be 3.58.
In turn, `O=C1CCCCCN1c1ncc(-c2ccc(C3CCC(c4c(F)cccc4F)=N3)cc2)cn1` (stereo not drawn) [Example 167] returned a chromatographic logP of 1.89.
As to `Fc1cccc(F)c1C1=NC(c2ccc(-c3cnc(N4CCN(CCc5ccccc5)CC4)nc3)cc2)CC1` (stereo not drawn) [Example 168], the chromatographic logP stood at 1.84.
In turn, `CCCc1cnc(-c2ccc(C3CCC(c4c(F)cccc4F)=N3)cc2)nc1` (stereo not drawn) [Example 169] had a chromatographic logP of 2.96.
`COC(=O)C1CCN(c2ccc(-c3ccc(C4CCC(c5c(F)cccc5F)=N4)cc3)cn2)CC1` (stereo not drawn) [Example 170]: the chromatographic logP was 1.61.
Consider `Fc1ccccc1N1CCN(c2ccc(-c3ccc(C4CCC(c5c(F)cccc5F)=N4)cc3)cn2)CC1` (stereo not drawn) [Example 171], for which the chromatographic logP turned out to be 2.51.
With `Fc1ccc(CN2CCN(c3ccc(-c4ccc(C5CCC(c6c(F)cccc6F)=N5)cc4)cn3)CC2)cc1` (stereo not drawn) [Example 172] the figure was 1.64; with `Fc1cccc(F)c1C1=NC(c2ccc(-c3ccc(N4CCN(Cc5ccc(Cl)cc5)CC4)nc3)cc2)CC1` (stereo not drawn) [Example 173], 1.83; with `COc1ccc(CN2CCN(c3ccc(-c4ccc(C5CCC(c6c(F)cccc6F)=N5)cc4)cn3)CC2)cc1` (stereo not drawn) [Example 174], 1.59.
With `CC(C)(C)C1CCN(c2ccc(-c3ccc(C4CCC(c5c(F)cccc5F)=N4)cc3)cn2)CC1` (stereo not drawn) [Example 175] the figure was 2.89.
With `CC(C)(C)c1ccc(CN2CCN(c3ccc(-c4ccc(C5CCC(c6c(F)cccc6F)=N5)cc4)cn3)CC2)cc1` (stereo not drawn) [Example 176], the chromatographic logP came out at 2.23.
Take `Cc1cnc(-c2ccc(C3CCC(c4c(F)cccc4F)=N3)cc2)nc1` (stereo not drawn) [Example 177]: the chromatographic logP came to 2.02.
As for `COCCN(CCC#N)c1ncc(-c2ccc(C3CCC(c4c(F)cccc4F)=N3)cc2)cn1` (stereo not drawn) [Example 178], the chromatographic logP amounted to 2.45.
In turn, `Fc1cccc(F)c1C1=NC(c2ccc(-c3ccc(Br)nc3)cc2)CC1` (stereo not drawn) [Example 179] yielded a chromatographic logP of 2.69.
With `Fc1cccc(F)c1C1=NC(c2ccc(-c3ncc(Br)cn3)cc2)CC1` (stereo not drawn) [Example 180], the chromatographic logP turned out to be 3.08.
Regarding `CCc1cnc(-c2ccc(C3CCC(c4c(F)cccc4F)=N3)cc2)nc1` (stereo not drawn) [Example 181], the chromatographic logP is 2.46.
`CN(Cc1ccco1)c1ncc(-c2ccc(C3CCC(c4c(F)cccc4F)=N3)cc2)cn1` (stereo not drawn) [Example 182]: the chromatographic logP was determined as 3.1.
`CCN(Cc1ccco1)c1ncc(-c2ccc(C3CCC(c4c(F)cccc4F)=N3)cc2)cn1` (stereo not drawn) [Example 183]: the chromatographic logP is 3.59.
For `Fc1cccc(F)c1C1=NC(c2ccc(-c3cnc(NCc4ccco4)nc3)cc2)CC1` (stereo not drawn) [Example 184], the chromatographic logP is 2.31.
On to `CCC(C)N(Cc1ccco1)c1ncc(-c2ccc(C3CCC(c4c(F)cccc4F)=N3)cc2)cn1` (stereo not drawn) [Example 185], for which the chromatographic logP came to 4.54.
Under `Cc1ccc(CN(C)c2ncc(-c3ccc(C4CCC(c5c(F)cccc5F)=N4)cc3)cn2)o1` (stereo not drawn) [Example 186] stands 3.4; under `Fc1cccc(F)c1C1=NC(c2ccc(-c3cnc(N4CCC5(CC4)OCCO5)nc3)cc2)CC1` (stereo not drawn) [Example 187], 2.51.
`Fc1cccc(F)c1C1=NC(c2ccc(-c3ncc(-c4ccc(Cl)cc4)cn3)cc2)CC1` (stereo not drawn) [Example 188] had a chromatographic logP of 4.12.
`Fc1cccc(F)c1C1=NC(c2ccc(-c3ccc(N4CCN(Cc5ccccc5)CC4)nc3)cc2)CC1` (stereo not drawn) [Example 189] gave a chromatographic logP of 1.5.
Compound `N#Cc1cccnc1N1CCN(c2ccc(-c3ccc(C4CCC(c5c(F)cccc5F)=N4)cc3)cn2)CC1` (stereo not drawn) [Example 190] came in with a chromatographic logP of 3.09.
In turn, `Cc1ccc(N2CCN(c3ccc(-c4ccc(C5CCC(c6c(F)cccc6F)=N5)cc4)cn3)CC2)cc1C` (stereo not drawn) [Example 191] showed a chromatographic logP of 2.58.
As for `CC(C)N1CCN(c2ccc(-c3ccc(C4CCC(c5c(F)cccc5F)=N4)cc3)cn2)CC1` (stereo not drawn) [Example 192], the chromatographic logP was 1.14.
Consider `CCOCCN1CCN(c2ccc(-c3ccc(C4CCC(c5c(F)cccc5F)=N4)cc3)cn2)CC1` (stereo not drawn) [Example 193], for which the chromatographic logP was found to be 1.26.
`COCCCN1CCN(c2ccc(-c3ccc(C4CCC(c5c(F)cccc5F)=N4)cc3)cn2)CC1` (stereo not drawn) [Example 195] displayed a chromatographic logP of 1.16.
As for `Fc1cccc(F)c1C1=NC(c2ccc(-c3cnc(OC4CCC4)nc3)cc2)CC1` (stereo not drawn) [Example 197], the chromatographic logP is 2.88.
Compound `Fc1cccc(F)c1C1=NC(c2ccc(-c3cnc(OC4CCCCC4)nc3)cc2)CC1` (stereo not drawn) [Example 198] yielded a chromatographic logP of 3.67.
Compound `Fc1cccc(F)c1C1=NC(c2ccc(-c3cnc(OC4CCCC4)nc3)cc2)CC1` (stereo not drawn) [Example 199] displayed a chromatographic logP of 3.21.
Compound `Fc1cccc(F)c1C1=NC(c2ccc(-c3cnc(OCC4CC4)nc3)cc2)CC1` (stereo not drawn) [Example 200] came in with a chromatographic logP of 2.74.
Turning to `CCNCc1ccc(-c2ccc(C3CCC(c4c(F)cccc4F)=N3)cc2)nc1` (stereo not drawn) [Example 201], the chromatographic logP is 0.9.
Turning to `Cc1ccc(-c2ccc(C3CCC(c4c(F)cccc4F)=N3)cc2)nc1` (stereo not drawn) [Example 202], the chromatographic logP worked out at 1.24.
`Fc1cccc(F)c1C1=NC(c2ccc(-c3ccc(N4CCN(c5cccc(C(F)(F)F)c5)CC4)nc3)cc2)CC1` (stereo not drawn) [Example 203]: the chromatographic logP came to 3.
Compound `Fc1cccc(F)c1C1=NC(c2ccc(-c3ccc(N4CCN(c5ncccn5)CC4)nc3)cc2)CC1` (stereo not drawn) [Example 204] gave a chromatographic logP of 1.5.
The compound `Cc1cccc(C)c1N1CCN(c2ccc(-c3ccc(C4CCC(c5c(F)cccc5F)=N4)cc3)cn2)CC1` (stereo not drawn) [Example 205] registered a chromatographic logP of 3.76.
